Data reported in BindingDB's records for doi:10.1021/acs.jmedchem.1c00019 (National Center For Advancing Translational Sciences, 2021).
“And” between values parts separate entries of the source, which are not always exact repeats. Identical values can stand only once.

What was measured:
[1] = molecular target: T1, Isocitrate dehydrogenase [NADP] cytoplasmic (Homo sapiens, UniProt O75874); assay: Inhibition of IDH1 R132H mutant (unknown origin) assessed as reduction in NADPH consumption using alpha-KG as substrate incubated for 5 mins by diaphorase/resazurin-coupled system
Target sequence in this assay (O75874 2-414 R132H limits assumed): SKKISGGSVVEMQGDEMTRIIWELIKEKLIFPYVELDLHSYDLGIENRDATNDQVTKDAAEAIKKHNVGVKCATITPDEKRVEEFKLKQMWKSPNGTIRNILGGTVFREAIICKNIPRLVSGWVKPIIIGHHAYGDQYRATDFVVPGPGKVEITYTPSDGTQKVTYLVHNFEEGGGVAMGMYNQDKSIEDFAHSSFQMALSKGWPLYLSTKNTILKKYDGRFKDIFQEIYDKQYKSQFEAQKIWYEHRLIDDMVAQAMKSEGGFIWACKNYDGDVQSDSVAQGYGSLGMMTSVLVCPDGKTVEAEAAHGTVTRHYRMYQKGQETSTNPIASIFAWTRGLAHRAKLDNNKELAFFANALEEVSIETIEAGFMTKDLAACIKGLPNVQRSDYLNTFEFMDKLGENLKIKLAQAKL

[2] = molecular target: T1, Isocitrate dehydrogenase [NADP] cytoplasmic; assay: Inhibition of IDH1 R132C mutant (unknown origin) assessed as reduction in NADPH consumption using alpha-KG as substrate incubated for 5 mins by diaphorase/resazurin-coupled system
Target sequence in this assay (O75874 2-414 R132C limits assumed): as the sequence (O75874 2-414 R132H limits assumed) above, with H131C counted along it

CCc1ccc(Cl)cc1-n1c(C=C(C)C)c(C(=O)N2CCNCC2)cc(-c2nc(-c3ccc(Cl)cc3)cs2)c1=O
IC50 [1]: 114 nM and 81 nM
IC50 [2]: 100 nM and 72 nM

CCc1ccc(OC)cc1-n1c(C=C(C)C)c(C(=O)N2CCNCC2)cc(-c2nc(-c3ccc(Cl)cc3)cs2)c1=O
IC50 [2]: 130 nM
